Assay results: patent US4748161A, “Triterpenyl esters of organic acids and hypolipidemic agents composed of them” (Amano Pharmaceutical Co., Ltd., priority 1984, dated 1988)
Like-named read-outs stand apart in the source and are kept apart here.

Legend:
serum lipids = conditions: 0.2% in high cholesterol diet, cited from earlier work; for TG level lowering: not significant; for TC level lowering: significant
[1] = tested on: serum lipids and serum lipid hydroperoxide; assay: Pharmacological test method A for anti-hyperlipidemic activity (serum lipids, 2 weeks feeding); format: in vivo, male Wistar strain rats
Method in brief: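 Male Wistar rats (100±lg, 10 per group) fed 10 g/day for 2 weeks of a 1% cholesterol/0.5% cholic acid diet, test groups with 1% each of cycloartenol, 24-methylenecycloartanol and cyclobranol. After 16 h fast, aortic blood serum assayed enzymatically/colorimetrically for TC, HDL-C, TG, PL, LPO.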

male Wistar strain rats = assay: Acute toxicity test, rats, oral; format: in vivo, rat (male Wistar strain); conditions: 2 to 6 g/Kg; for Mortality: 2 weeks observation
Protocol: (§1) Acute toxicity tests were conducted using 5 male ddy strain mice (30±2 g) and 5 male Wistar strain rats (100±2 g) for each compound by oral administration.
(§2) The above 66 compounds of esters, and as control drugs, cycloartenol, 24-methylenecycloartanol, cyclobranol, and γ-orizanol were given forcibly to the above-mentioned mice and rats by means of a throat explorer rod in doses of 0.1 to 5 g/Kg for mice and 2 to 6 g/Kg for rats. During the test, the temperature of the animal room was kept at 22° to 23 ° C. […] In the inspection conducted after 2-week observation, no macroscopic lesion was found in any part of main organs. Thus the compound of the invention has very low toxicity, so that the LD50 value could not determined.

male ddy strain mice = assay: Acute toxicity test, mice, oral; format: in vivo, mouse (male ddy strain); conditions: 0.1 to 5 g/Kg; for Mortality: 2 weeks observation
Protocol: as §1, §2

serum TC = conditions: 1% added to diet containing 0.5% of cholesterol; cited from earlier work
[2] = tested on: serum lipids and serum lipid hydroperoxide; assay: Pharmacological test method B for anti-hyperlipidemic activity (serum lipids, 4 weeks feeding); format: in vivo, male Wistar strain rats; set-up: AI Diff.: unit not given here; conditions: for AI [(TC - HDL-C)/(HDL-C)] / HDL-C in serum / LPO in serum / PL in serum / TC in serum / TG in serum: 1% in hyperlipidemic diet, 4 weeks; for change in vivo at 1 % in diet: Rattus norvegicus, po, 672 h; for change in vivo at 1 % in diet / AI Diff. / HDL-C Diff. / LPO Diff. / PL Diff. / TC % of diff. / TC Diff. / TG Diff.: versus control group; for HDL-C rise compared with normal diet group: versus normal diet group
Method in brief: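 Male Wistar rats (100±1 g, n=8; hyperlipidemic control n=16) were fed for 4 weeks a diet with 1% cholesterol and 0.5% cholic acid, with test compound admixed at 1%. After a 16 h fast, serum was taken from the abdominal aorta under pentobarbital. TC, HDL-C and PL were measured by enzymatic colorimetric kits at 500 nm; TG by acetylacetone kit; LPO also measured.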

[3] = Body weight of rats in method B; set-up: species or system male Wistar strain rats; conditions: rat, in vivo
Protocol: Male Wistar strain rats (100±1 g, each 8 rats were formed into a group except that the control group fed with a hyperlipidemic diet was formed of 16 rats) were used as test animals. A powdery diet (CE-2, supplied by Clea Japan, Inc.) was used as ordinary diet. The hyperlipidemic diet was prepared by fortifying the ordinary diet with cholesterol (1%) and cholic acid (0.5%). Each test compound (1%) for administration was admixed with the hyperlipidemic diet. Each two rats were kept in a cage and given the prescribed diet and water ad libitum. Thus the rats were fed for 4 weeks at a constant temperature of 23±1° C. and a constant R.H. of 55±5%. Finally, the rats were fasted from food except water for 16 hours (from 4 p.m. of the 28th test day to 8 a.m. of the 29th test day), and under anesthesia with pentbarbital sodium (tradename: Nembutal), blood was taken from each rat through the descending abdominal arota. Then, TC, HDL-C, TG, PL, and LPO in the serum were measured in the following manner.

O=C(O)/C=C/c1ccc(O)c(O)c1 [caffeic acid]
decrease of TC, TG, or PL level (serum lipids): no decrease

CC(C)=C(C)CCC(C)C1CCC2(C)C3CCC4C(C)(C)C(O)CCC45CC35CCC12C (stereo not shown) [Sample 2, cyclobranol]
AI change [1]: showed tendencies to decrease it | Symptoms of toxicosis (male Wistar strain rats): no symptom of toxicosis appeared | Mortality (male Wistar strain rats): none of the animals died | Symptoms of toxicosis (male ddy strain mice): no symptom of toxicosis appeared | Mortality (male ddy strain mice): none of the animals died

O=C(O)C=Cc1ccccc1 [cinnamic acid]
decrease of TC, TG, or PL level (serum lipids): no decrease

COc1cc(/C=C/C(=O)O)ccc1O [ferulic acid, 4-hydroxy-3-methoxycinnamic acid]
TG level lowering (serum lipids): 18.7% | TC level lowering (serum lipids): 10.8% | PL level lowering (serum lipids): scarcely observed

COc1cc(C(=O)O)ccc1O [vanillic acid]
decrease of TC, TG, or PL level (serum lipids): no decrease

O=C(O)/C=C/c1ccc(O)cc1 [p-coumaric acid]
TG level lowering (serum lipids): 19.8% | TC level lowering (serum lipids): 9.4% | PL level lowering (serum lipids): scarcely observed

CC(C)=CCC[C@@H](C)[C@H]1CC[C@@]2(C)[C@@H]3CC[C@H]4C(C)(C)[C@@H](O)CC[C@@]45C[C@@]35CC[C@]12C [Sample 1, cycloartenol]
AI change [1]: showed tendencies to decrease it | Symptoms of toxicosis (male Wistar strain rats): no symptom of toxicosis appeared | Mortality (male Wistar strain rats): none of the animals died | percentage of TC lowering (serum TC): 13.7% | Symptoms of toxicosis (male ddy strain mice): no symptom of toxicosis appeared | Mortality (male ddy strain mice): none of the animals died

C=C(CCC(C)C1CCC2(C)C3CCC4C(C)(C)C(O)CCC45CC35CCC12C)C(C)C (stereo not shown) [Sample 3, 24-methylenecycloartanol]
AI change [1]: only a slight tendency to increase | Symptoms of toxicosis (male Wistar strain rats): no symptom of toxicosis appeared | Mortality (male Wistar strain rats): none of the animals died | percentage of TC lowering (serum TC): 10.2% | Symptoms of toxicosis (male ddy strain mice): no symptom of toxicosis appeared | Mortality (male ddy strain mice): none of the animals died

CCOc1cc(C=C(C)C(=O)OC2CCC34CC35CCC3(C)C(C(C)CCC(C)=C(C)C)CCC3(C)C5CCC4C2(C)C)ccc1O (stereo not drawn) [Example 140, cyclobranyl ester of 3-ethoxy-4-hydroxy-α-methylcinnamic acid]
AI [(TC - HDL-C)/(HDL-C)] [2]: 2.602 | HDL-C in serum [2]: 54.8 mg/dL | LPO in serum [2]: 2.02 nmol/mL | PL in serum [2]: 98.0 mg/dL | TC in serum [2]: 197.4 mg/dL | TG in serum [2]: 52.4 mg/dL | change in vivo at 1 % in diet ([2]; read-out: AI % of diff.): -88% | change in vivo at 1 % in diet ([2]; read-out: HDL-C % of diff.): 306% | change in vivo at 1 % in diet ([2]; read-out: LPO % of diff.): -28.4% | change in vivo at 1 % in diet ([2]; read-out: PL % of diff.): -30% | change in vivo at 1 % in diet ([2]; read-out: TG % of diff.): -7.3% | AI Diff. [2]: -19.16 | HDL-C Diff. [2]: +41.3 mg/dl | LPO Diff. [2]: -0.80 nmol/mL | PL Diff. [2]: -42.1 mg/dL | TC % of diff. [2]: -35.8% | TC Diff. [2]: -109.9 mg/dL | TG Diff. [2]: -4.1 mg/dL | HDL-C rise compared with normal diet group [2]: remarkable rises | Body weight during feed period, 1st day [3]: 105 ± 3.6 g | Body weight during feed period, 8th day [3]: 147 ± 9.5 g | Body weight during feed period, 15th day [3]: 194 ± 17.2 g | Body weight during feed period, 22nd day [3]: 246 ± 15.8 g | Body weight during feed period, 28th day [3]: 273 ± 18.7 g | Body weight just before blood sampling, 29th day [3]: 261 ± 15.6 g

C=C(CCC(C)C1CCC2(C)C3CCC4C(C)(C)C(OC(=O)C(C)=Cc5ccc(O)c(OC)c5)CCC45CC35CCC12C)C(C)C (stereo not drawn) [Example 118, 24-methylenecycloartanyl ester of 4-hydroxy-3-methoxy-α-methylcinnamic acid]
AI [(TC - HDL-C)/(HDL-C)] [2]: 1.943 | HDL-C in serum [2]: 47.4 mg/dL | LPO in serum [2]: 2.08 nmol/mL | PL in serum [2]: 98.3 mg/dL | TC in serum [2]: 139.5 mg/dL | TG in serum [2]: 51.4 mg/dL | change in vivo at 1 % in diet ([2]; read-out: AI % of diff.): -91.9% | change in vivo at 1 % in diet ([2]; read-out: HDL-C % of diff.): 251% | change in vivo at 1 % in diet ([2]; read-out: LPO % of diff.): -26.2% | change in vivo at 1 % in diet ([2]; read-out: PL % of diff.): -29.8% | change in vivo at 1 % in diet ([2]; read-out: TG % of diff.): -9% | AI Diff. [2]: -19.82 | HDL-C Diff. [2]: +33.9 mg/dl | LPO Diff. [2]: -0.74 nmol/mL | PL Diff. [2]: -41.8 mg/dL | TC % of diff. [2]: -54.6% | TC Diff. [2]: -168.2 mg/dL | TG Diff. [2]: -5.1 mg/dL | HDL-C rise compared with normal diet group [2]: remarkable rises | Body weight during feed period, 1st day [3]: 106 ± 3.4 g | Body weight during feed period, 8th day [3]: 147 ± 9.2 g | Body weight during feed period, 15th day [3]: 192 ± 17.8 g | Body weight during feed period, 22nd day [3]: 243 ± 15.4 g | Body weight during feed period, 28th day [3]: 274 ± 18.4 g | Body weight just before blood sampling, 29th day [3]: 259 ± 20.4 g
